These results are taken from PMC4922569, “Antifibrotic Effects of the Dual CCR2/CCR5 Antagonist Cenicriviroc in Animal Models of Liver and Kidney Fibrosis” (PLoS ONE, 2016).

Structures can show the parent of a compound that is named as a salt.

The subject of one series is CCR2. The settings on record: cited from earlier work.
Series [1] can be described thus: CVC plasma levels in the UUO model (LC/MS/MS). In kind it is in vivo. The settings on record: n = 8, ~4 hours post-dose (approximate Cmax), Day 5. Here is the method: Male CD-1 mice (n = 51; 7–8 weeks of age; Charles River Laboratories, USA) were allocated to weight-matched treatment groups on Day -1 (1 day prior to either sham [one group] or permanent right UUO surgery [five groups] via aseptic laparotomy). From Days -1 to 4, mice received phosphate-buffered saline (PBS) IP QD, apart from a positive-control group, which received 1D11 (anti-TGF-beta1 antibody) 3 mg/kg IP QD. From Days 0 to 5, mice received vehicle control (sham surgery, UUO-control and UUO+positive-control groups) or CVC 7 mg/kg/day (CVC7), CVC20 or CVC100 PO BID (S1 Table). The CVC100 group was terminated due to poor clinical condition (6/9 animals died and 3/9 euthanized prior to end of study). Of note, a similar dose of CVC100 administered for 3 weeks was well tolerated in the mouse NASH model; therefore, it is plausible that the laparotomy and UUO surgery in combination with CVC may have contributed to the loss of animals. […]
CVC plasma levels (minimum and maximum) were determined by KCAS Bioanalytical Services, USA, using a validated liquid chromatography-tandem mass spectrometry (LC/MS/MS) plasma method (50 μL assay, range 10.0−1920.0 ng/mL).

Series [2] in a line: Body and kidney weights and clinical condition, UUO model. It is filed as in vivo. The settings on record: for Contralateral kidney weight / Final body weight / Obstructed kidney weight: UUO model, average±SEM. The procedure:
Male CD-1 mice (n = 51; 7–8 weeks of age; Charles River Laboratories, USA) were allocated to weight-matched treatment groups on Day -1 (1 day prior to either sham [one group] or permanent right UUO surgery [five groups] via aseptic laparotomy). From Days -1 to 4, mice received phosphate-buffered saline (PBS) IP QD, apart from a positive-control group, which received 1D11 (anti-TGF-beta1 antibody) 3 mg/kg IP QD. From Days 0 to 5, mice received vehicle control (sham surgery, UUO-control and UUO+positive-control groups) or CVC 7 mg/kg/day (CVC7), CVC20 or CVC100 PO BID (S1 Table). […] Study endpoints included: body and kidney weights, mRNA expression (TGF-beta, connective tissue growth factor, MCP-1, alpha-SMA, collagen 1a1, fibronectin-1 and collagen 3a1), extracellular matrix protein in renal cortical tissue (hydroxyproline content) and histological analyses. Blood and tissue samples were collected from anesthetized mice 4 hours post-dose on Day 5, prior to sacrifice. A mid-transverse section of the right obstructed kidney was collected for histological analysis.
Body weight (measured before and during treatment) and sacrificed animal body and liver/kidney/spleen weights were recorded.

The subject of series [3] is APAP-induced liver injury. The settings on record: cited from earlier work.
For the next series, the system named is CCR2 on monocytes. More on the design: method as in earlier work. The settings on record: at 6 nmol/L; human PBMC ex vivo; cited from earlier work.
For series [4] the following is noted: in rats; cited from earlier work.
Series [5] concerns CCL2-mediated chemotaxis of activated murine macrophages (F4/80+/CD11b+). The experiment in a line: Ex vivo CCL2-induced chemotaxis of activated mouse macrophages (Transwell). In kind it is cell-based. The settings on record: 2 hours. The procedure:
Mouse monocyte migration in response to CVC treatment was assessed ex vivo in triplicate. TG was injected intraperitoneally into male C57BL/6 mice (n = 3; 8–10 weeks of age; Jackson Laboratory, USA) and activated macrophages were collected 48 hours later by peritoneal lavage. Chemotaxis was assayed using a Transwell® Chamber (Costar, USA) with a 5 μm-pore size polycarbonate filter, as previously described. Briefly, cells were incubated for 2 hours in the presence of 1 nM CCL2 and/or 1 μM CVC (dissolved in dimethyl sulfoxide with 0.5% acetic acid and diluted 1:1000 with serum-free Roswell Park Memorial Institute-1640 medium and 0.5% bovine serum albumin). Cells were harvested from the lower compartment and analyzed by flow cytometry to enumerate F4/80^+CD11b^+ macrophages using a 3-laser BD FACSCanto™ (BD Biosciences, Canada). Results were analyzed using FlowJo software (Tree Star Inc., USA).
In the peritonitis mouse model, one-way analysis of variance with post-hoc Dunnett’s test was performed, using GraphPad Prism® (GraphPad Software, Inc., USA), on differential cell counts obtained from lavage in treatment groups versus the vehicle-control group. For the ex vivo migration of mouse monocytes, statistical significance was determined by a Student’s t test.

Where [6] appears, read: CVC100 PO BID, UUO surgery, group terminated due to poor clinical condition.
Setting [7] is: acute APAP-induced liver injury.

As for `CCCCOCCOc1ccc(-c2ccc3c(c2)/C=C(/C(=O)Nc2ccc([S@@+]([O-])Cc4cncn4CCC)cc2)CCCN3CC(C)C)cc1` [CVC, cenicriviroc mesylate], the “Occupancy for CCR2 (blood and spleen) in proinflammatory monocytes” value with CCR2 (CVC 250 nM, murine cryopreserved PBMC ex vivo) is listed as over 90%. For the same molecule, the CCR2 occupancy in the series on CCR2 (CVC concentrations of 250 nmol/L or higher, mouse monocytes and macrophages ex vivo) was over 87%. Also, the “CVC concentration (mean±SD), plasma” value in series [1] (CVC7 BID) was determined as 251 ± 364 ng/mL. The “CVC concentration (mean±SD), plasma” value in series [1] (CVC20 BID) came out at 971 ± 507 ng/mL. Besides, the “Decrease in body weight vs UUO control” value in series [2] (CVC20, Day 5, p < 0.05) worked out at 5%. For the same molecule, in series [2] (setting [6]), the “Animals died prior to end of study” value is 6/9 and the “Animals euthanized prior to end of study” value is given as 3/9. In series [2] (CVC 7 mg/kg/day), this molecule gave a Contralateral kidney weight of 221.0 ± 10.1 mg, a Final body weight of 26.3 ± 0.5 g and an Obstructed kidney weight of 232.0 ± 11.9 mg. For the same molecule, in series [2] (CVC 20 mg/kg/day), the Contralateral kidney weight came to 202.4 ± 6.1 mg, the Final body weight was determined as 25.7 ± 0.4 g and the Obstructed kidney weight was 217.0 ± 6.7 mg. In series [3] (APAP model, preliminary data), the “Infiltration of Ly6Chi monocyte-derived macrophages into the liver” value is on record as “significantly decreased”. For the same molecule, in series [3] (setting [7]), the “ALT levels relative to vehicle control” value is recorded as “significant reduction” and the “Necrotic area relative to vehicle control” value is recorded as “significant reduction”. Besides, in the series on CCR2 on monocytes, the “Receptor occupancy for CCR2 on monocytes” value is reported as ~ 98%. Further, in series [4], the Half-life is 4 to 5 h. The “Average fold change in migrating cells (±SD) compared to untreated and unstimulated cells” value in series [5] (CCL2-stimulated (1 nM) cells treated with CVC 1 μM) amounted to 0.8±0.2 fold. Moreover, the “Average fold change in migrating cells (±SD) compared to untreated and unstimulated cells” value in series [5] (unstimulated cells treated with CVC 1 μM) is on record as 0.7±0.4 fold.
